The source made the active and inactive calls. The calls are words filed in the database; no cut-off is given here.
Experiments:
[1] = target: Tyrosine-protein kinase JAK1 (Homo sapiens) (UniProt P23458); assay: Inhibition of JAK1 domain ACT labeling site in human Huh-7 cell lysate at 1 uM by KiNativ Profiling analysis relative to control; assay type: subcellular
[2] = target: Ribosomal protein S6 kinase alpha-3 (Homo sapiens) (UniProt P51812); assay: Inhibition of RSK2 domain1 ACT labeling site harbouring LTDFGLSKESIDHEKK in human Huh-7 cell lysate at 1 uM by KiNativ Profiling analysis relative to control; assay type: subcellular
[3] = target: Calcium/calmodulin-dependent protein kinase type II subunit gamma (Homo sapiens) (UniProt Q13555); assay: Inhibition of CaMK2g Lys1 labeling site harbouring KTSTQEYAAKIINTK in human Huh-7 cells at 1 uM by KiNativ Profiling analysis relative to control; assay type: cell-based
[4] = target: Cyclin-dependent kinase 1 (Homo sapiens) (UniProt P06493); assay: Inhibition of CDC2 Lys1 labeling site in human Huh-7 cells at 1 uM by KiNativ Profiling analysis relative to control; assay type: cell-based
Sequence of Cyclin-dependent kinase 1 (Homo sapiens) (P06493 whole entry, looked up): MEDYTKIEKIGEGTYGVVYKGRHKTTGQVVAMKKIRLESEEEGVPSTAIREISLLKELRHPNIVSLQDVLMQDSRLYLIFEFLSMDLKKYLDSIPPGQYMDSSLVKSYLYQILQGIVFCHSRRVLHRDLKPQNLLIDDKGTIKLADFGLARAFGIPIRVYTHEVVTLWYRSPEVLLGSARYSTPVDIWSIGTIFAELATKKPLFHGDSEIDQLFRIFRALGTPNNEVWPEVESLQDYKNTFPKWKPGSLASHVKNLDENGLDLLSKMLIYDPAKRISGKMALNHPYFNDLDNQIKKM

[5] = target: Serine/threonine-protein kinase WNK1 (Homo sapiens) (UniProt Q9H4A3); assay: Inhibition of Wnk1 ACT labeling site in human Huh-7 cells at 1 uM by KiNativ Profiling analysis relative to control; assay type: cell-based
[6] = target: Cyclin-G-associated kinase (Homo sapiens) (UniProt O14976); assay: Inhibition of GAK (unknown origin) at 10 uM by Ambit Kinomescan binding assay relative to control
[7] = target: Non-receptor tyrosine-protein kinase TYK2 (Homo sapiens) (UniProt P29597); assay: Inhibition of TYK2 JH2 pseudokinase domain (unknown origin) at 10 uM by Ambit Kinomescan binding assay
Sequence of Non-receptor tyrosine-protein kinase TYK2 (Homo sapiens) (P29597 whole entry, the tested form may be a part): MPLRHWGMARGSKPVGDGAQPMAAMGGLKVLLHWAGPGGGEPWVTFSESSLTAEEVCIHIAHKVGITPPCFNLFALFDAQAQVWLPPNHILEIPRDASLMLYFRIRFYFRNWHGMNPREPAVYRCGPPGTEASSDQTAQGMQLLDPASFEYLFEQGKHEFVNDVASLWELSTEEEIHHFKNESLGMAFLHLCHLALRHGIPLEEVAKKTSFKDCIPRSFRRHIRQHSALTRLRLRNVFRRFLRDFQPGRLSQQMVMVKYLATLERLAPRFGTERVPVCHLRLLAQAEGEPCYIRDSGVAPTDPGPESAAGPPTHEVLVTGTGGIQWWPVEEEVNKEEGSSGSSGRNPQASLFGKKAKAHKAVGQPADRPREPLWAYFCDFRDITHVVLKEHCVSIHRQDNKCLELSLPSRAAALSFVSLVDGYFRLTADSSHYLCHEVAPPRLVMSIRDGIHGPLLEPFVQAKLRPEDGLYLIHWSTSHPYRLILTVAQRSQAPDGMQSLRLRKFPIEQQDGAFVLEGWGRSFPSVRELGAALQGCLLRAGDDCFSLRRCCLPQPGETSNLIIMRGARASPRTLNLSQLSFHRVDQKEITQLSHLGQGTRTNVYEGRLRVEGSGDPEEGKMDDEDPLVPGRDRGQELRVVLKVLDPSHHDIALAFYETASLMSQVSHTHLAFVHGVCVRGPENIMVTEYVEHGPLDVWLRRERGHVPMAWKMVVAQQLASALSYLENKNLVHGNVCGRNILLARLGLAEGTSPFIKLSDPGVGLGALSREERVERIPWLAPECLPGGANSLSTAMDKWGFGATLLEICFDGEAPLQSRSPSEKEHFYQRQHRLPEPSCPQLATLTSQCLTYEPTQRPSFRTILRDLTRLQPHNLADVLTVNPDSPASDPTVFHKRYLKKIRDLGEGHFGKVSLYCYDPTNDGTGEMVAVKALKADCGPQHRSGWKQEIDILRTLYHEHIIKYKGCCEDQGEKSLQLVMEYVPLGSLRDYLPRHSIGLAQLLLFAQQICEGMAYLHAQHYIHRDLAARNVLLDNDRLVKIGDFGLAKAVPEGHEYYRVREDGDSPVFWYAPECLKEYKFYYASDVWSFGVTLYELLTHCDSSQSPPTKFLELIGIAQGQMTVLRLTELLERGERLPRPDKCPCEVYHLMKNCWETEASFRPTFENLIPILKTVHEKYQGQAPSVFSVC

[8] = target: Tyrosine-protein kinase JAK1 (Homo sapiens) (UniProt P23458); assay: Inhibition of JAK1 domain2 Lys1 labeling site in human A-375 cells at 0.05 uM by KiNativ Profiling analysis relative to control; assay type: cell-based
[9] = target: Serine/threonine-protein kinase 16 (Homo sapiens) (UniProt O75716); assay: Inhibition of MPSK1 K2 labeling site in human Huh-7 cells at 10 uM by KiNativ Profiling analysis relative to control; assay type: cell-based
Sequence of Serine/threonine-protein kinase 16 (Homo sapiens) (O75716 whole entry): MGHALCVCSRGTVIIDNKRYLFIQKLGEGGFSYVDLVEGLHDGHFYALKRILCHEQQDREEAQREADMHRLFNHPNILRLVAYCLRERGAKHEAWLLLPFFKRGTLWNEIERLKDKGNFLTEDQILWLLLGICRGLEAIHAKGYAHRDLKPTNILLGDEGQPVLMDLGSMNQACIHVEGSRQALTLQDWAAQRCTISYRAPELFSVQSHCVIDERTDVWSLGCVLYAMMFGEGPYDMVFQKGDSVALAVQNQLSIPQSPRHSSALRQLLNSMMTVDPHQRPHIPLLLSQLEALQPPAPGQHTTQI

[10] = target: Cyclin-dependent kinase 14 (Homo sapiens) (UniProt O94921); assay: Inhibition of PFTAIRE1 Lys1 labeling site in human A-375 cells at 5 uM by KiNativ Profiling analysis relative to control
Sequence of Cyclin-dependent kinase 14 (Homo sapiens) (O94921 whole entry, looked up): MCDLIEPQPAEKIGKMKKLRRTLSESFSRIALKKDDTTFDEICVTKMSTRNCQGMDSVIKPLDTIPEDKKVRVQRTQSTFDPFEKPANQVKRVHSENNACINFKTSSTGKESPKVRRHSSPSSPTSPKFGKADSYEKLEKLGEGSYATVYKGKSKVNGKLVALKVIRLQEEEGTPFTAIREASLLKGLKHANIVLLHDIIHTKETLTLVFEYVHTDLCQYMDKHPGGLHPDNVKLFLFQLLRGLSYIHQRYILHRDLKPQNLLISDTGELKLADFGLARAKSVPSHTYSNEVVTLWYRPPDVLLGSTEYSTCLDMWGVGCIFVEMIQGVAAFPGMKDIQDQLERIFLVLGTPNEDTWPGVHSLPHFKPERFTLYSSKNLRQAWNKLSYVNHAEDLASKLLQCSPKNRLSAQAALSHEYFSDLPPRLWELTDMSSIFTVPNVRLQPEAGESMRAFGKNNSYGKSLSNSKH

[11] = target: Ephrin type-A receptor 7 (Homo sapiens) (UniProt Q15375); assay: Inhibition of EPHA7 (unknown origin) at 10 uM by Ambit Kinomescan binding assay
[12] = target: Dual specificity protein kinase CLK1 (Homo sapiens) (UniProt P49759); assay: Inhibition of CLK1 (unknown origin) at 10 uM by Ambit Kinomescan binding assay
[13] = target: Tyrosine-protein kinase CSK (Homo sapiens, UniProt P41240); assay: Inhibition of CSK ACT labeling site harbouring VSDFGLTKEASSTQDTGK in human A-375 cells at 0.05 uM by KiNativ Profiling analysis relative to control; assay type: cell-based
[14] = target: Tyrosine-protein kinase ABL1 (Homo sapiens, UniProt P00519); assay: Inhibition of phosphorylated ABL1 (unknown origin) at 1 uM by Ambit Kinomescan binding assay relative to control; values are per cent of control
[15] = target: Non-receptor tyrosine-protein kinase TNK1 (Homo sapiens) (UniProt Q13470); assay: Inhibition of TNK1 (unknown origin) at 1 uM by Ambit Kinomescan binding assay relative to control
Sequence of Non-receptor tyrosine-protein kinase TNK1 (Homo sapiens) (Q13470 whole entry): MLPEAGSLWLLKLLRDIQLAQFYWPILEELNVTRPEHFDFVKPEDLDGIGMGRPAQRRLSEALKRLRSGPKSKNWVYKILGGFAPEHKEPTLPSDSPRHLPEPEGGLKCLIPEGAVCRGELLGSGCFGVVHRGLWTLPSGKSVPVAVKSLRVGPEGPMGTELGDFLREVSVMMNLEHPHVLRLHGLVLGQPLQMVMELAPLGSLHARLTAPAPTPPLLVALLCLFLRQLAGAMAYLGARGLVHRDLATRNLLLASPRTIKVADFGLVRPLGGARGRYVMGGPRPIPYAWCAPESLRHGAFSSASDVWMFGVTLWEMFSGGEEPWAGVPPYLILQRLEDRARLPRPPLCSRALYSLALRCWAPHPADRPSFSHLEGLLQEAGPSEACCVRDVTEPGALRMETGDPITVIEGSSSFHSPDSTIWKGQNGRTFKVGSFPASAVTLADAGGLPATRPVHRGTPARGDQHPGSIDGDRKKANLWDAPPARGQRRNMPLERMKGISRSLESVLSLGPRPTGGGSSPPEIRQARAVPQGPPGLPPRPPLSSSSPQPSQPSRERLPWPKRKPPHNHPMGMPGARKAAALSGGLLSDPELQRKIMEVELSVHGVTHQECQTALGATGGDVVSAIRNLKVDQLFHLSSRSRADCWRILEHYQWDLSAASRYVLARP

[16] = target: Mast/stem cell growth factor receptor Kit (Homo sapiens) (UniProt P10721); assay: Inhibition of KIT (unknown origin) at 1 uM by Ambit Kinomescan binding assay relative to control; values are per cent of control
[17] = target: Casein kinase I isoform delta (Homo sapiens) (UniProt P48730); assay: Inhibition of CK1delta Lys2 labeling site in human A-375 cells at 5 uM by KiNativ Profiling analysis relative to control; assay type: cell-based
Sequence of Casein kinase I isoform delta (Homo sapiens) (P48730 whole entry, looked up, canonical isoform): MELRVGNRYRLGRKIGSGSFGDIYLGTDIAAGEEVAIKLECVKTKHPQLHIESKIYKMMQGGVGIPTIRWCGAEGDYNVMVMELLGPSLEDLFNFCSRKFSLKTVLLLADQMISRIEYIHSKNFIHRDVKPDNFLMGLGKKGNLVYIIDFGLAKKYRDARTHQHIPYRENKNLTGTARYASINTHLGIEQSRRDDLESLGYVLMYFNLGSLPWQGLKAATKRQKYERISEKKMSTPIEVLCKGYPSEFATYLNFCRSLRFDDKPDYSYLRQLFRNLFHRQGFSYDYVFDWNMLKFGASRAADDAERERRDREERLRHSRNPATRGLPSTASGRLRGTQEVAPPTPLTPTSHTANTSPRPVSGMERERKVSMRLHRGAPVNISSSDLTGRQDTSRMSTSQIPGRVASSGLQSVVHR

[18] = target: T1, Serine/threonine-protein kinase Sgk3 (Homo sapiens) (UniProt Q96BR1); assay: Inhibition of SGK3 Lys1 labeling site in human A-375 cells at 5 uM by KiNativ Profiling analysis relative to control; assay type: cell-based
T1 sequence (whole entry): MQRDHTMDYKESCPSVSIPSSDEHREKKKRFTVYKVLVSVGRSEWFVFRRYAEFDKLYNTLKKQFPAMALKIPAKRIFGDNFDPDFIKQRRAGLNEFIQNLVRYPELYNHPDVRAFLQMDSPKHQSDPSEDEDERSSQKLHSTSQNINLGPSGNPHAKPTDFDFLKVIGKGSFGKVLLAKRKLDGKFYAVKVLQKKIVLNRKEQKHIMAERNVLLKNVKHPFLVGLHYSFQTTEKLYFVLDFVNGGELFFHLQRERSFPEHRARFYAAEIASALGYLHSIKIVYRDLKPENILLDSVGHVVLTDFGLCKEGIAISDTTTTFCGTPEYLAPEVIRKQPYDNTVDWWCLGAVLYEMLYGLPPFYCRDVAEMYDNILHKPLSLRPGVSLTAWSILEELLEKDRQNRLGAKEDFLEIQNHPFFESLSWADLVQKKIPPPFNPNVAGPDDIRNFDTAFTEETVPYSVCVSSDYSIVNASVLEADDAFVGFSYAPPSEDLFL

[19] = target: T2, Serine/threonine-protein kinase Chk1 (Homo sapiens) (UniProt O14757); assay: Inhibition of CHEK1 (unknown origin) at 1 uM by Ambit Kinomescan binding assay relative to control
T2 sequence (whole entry): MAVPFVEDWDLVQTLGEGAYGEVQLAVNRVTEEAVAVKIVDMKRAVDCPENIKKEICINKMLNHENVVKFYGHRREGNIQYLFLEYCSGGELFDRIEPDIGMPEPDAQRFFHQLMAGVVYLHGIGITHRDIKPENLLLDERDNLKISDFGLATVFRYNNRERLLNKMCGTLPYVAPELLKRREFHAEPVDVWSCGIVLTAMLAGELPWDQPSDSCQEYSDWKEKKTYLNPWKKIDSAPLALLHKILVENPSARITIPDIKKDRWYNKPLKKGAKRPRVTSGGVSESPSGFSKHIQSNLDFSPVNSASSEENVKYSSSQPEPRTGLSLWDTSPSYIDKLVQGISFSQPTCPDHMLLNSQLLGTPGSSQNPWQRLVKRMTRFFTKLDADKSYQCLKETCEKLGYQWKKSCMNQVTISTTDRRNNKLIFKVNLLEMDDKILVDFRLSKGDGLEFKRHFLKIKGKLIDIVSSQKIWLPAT

[20] = target: Tyrosine-protein kinase TXK (Homo sapiens) (UniProt P42681); assay: Inhibition of TXK (unknown origin) at 1 uM by Ambit Kinomescan binding assay relative to control
Sequence of Tyrosine-protein kinase TXK (Homo sapiens) (P42681 whole entry): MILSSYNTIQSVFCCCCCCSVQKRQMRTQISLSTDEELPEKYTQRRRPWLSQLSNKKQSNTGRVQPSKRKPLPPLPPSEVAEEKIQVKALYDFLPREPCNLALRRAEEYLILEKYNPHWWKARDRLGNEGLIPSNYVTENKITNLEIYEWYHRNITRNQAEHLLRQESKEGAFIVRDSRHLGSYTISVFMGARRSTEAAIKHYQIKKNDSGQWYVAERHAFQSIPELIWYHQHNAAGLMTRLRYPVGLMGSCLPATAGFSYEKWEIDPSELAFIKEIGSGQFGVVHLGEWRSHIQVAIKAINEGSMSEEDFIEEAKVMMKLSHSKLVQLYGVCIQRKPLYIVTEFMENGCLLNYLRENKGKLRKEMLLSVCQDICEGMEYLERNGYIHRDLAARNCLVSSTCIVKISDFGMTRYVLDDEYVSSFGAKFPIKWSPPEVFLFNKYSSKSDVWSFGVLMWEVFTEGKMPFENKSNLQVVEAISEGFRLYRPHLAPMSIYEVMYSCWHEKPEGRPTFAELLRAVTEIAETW

[21] = target: Serine/threonine-protein kinase 38-like (Homo sapiens) (UniProt Q9Y2H1); assay: Inhibition of NDR2 Lys1 labeling site harbouring DTGHIYAMKILR in human A-375 cells at 5 uM by KiNativ Profiling analysis relative to control; assay type: cell-based

Sequence of Tyrosine-protein kinase JAK1 (Homo sapiens) (P23458 whole entry, the tested form may be a part): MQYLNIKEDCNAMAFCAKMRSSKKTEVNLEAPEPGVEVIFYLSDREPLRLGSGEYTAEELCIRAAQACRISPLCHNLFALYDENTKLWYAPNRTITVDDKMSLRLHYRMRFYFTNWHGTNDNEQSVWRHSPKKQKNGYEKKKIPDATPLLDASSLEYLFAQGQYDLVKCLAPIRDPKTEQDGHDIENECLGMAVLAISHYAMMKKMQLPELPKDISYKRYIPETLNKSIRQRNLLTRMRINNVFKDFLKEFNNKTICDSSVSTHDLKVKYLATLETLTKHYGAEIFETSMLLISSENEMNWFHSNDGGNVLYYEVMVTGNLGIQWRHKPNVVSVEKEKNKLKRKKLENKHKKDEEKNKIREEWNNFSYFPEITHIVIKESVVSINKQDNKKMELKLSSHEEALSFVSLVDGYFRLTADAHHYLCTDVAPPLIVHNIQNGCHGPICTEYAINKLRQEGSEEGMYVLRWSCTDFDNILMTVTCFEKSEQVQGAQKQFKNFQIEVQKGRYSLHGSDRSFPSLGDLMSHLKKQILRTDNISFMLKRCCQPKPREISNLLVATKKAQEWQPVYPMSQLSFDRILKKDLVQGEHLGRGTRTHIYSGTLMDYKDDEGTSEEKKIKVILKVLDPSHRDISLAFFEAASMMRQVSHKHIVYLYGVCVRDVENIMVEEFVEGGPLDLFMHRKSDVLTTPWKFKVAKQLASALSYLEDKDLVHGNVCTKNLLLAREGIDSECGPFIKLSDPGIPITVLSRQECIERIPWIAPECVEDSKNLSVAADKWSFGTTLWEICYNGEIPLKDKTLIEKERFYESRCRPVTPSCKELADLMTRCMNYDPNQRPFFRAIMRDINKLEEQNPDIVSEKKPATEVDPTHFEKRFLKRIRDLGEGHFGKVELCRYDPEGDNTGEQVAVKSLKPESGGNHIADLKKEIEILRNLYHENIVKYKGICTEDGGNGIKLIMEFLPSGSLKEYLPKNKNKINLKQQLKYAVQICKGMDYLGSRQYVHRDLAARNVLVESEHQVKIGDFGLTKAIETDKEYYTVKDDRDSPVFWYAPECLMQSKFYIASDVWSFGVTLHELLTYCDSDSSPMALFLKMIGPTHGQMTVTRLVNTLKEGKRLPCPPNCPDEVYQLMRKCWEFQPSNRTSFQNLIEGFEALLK

SMILES: CNc1cc(Oc2cc(C(=O)Nc3cc(-n4cnc(C)c4)cc(C(F)(F)F)c3)ccc2C)ncn1
- inhibition [1]: 4.9%

SMILES: CNc1cc(Oc2cc(C(=O)Nc3cc(N4CCN(C)CC4)cc(C(F)(F)F)c3)ccc2C)ncn1
- inhibition [2]: -2.2%
- inhibition [3]: 24.3%
- inhibition [4]: 8.9%
- inhibition [5]: 21.6%

SMILES: CCN1CCN(Cc2ccc(NC(=O)c3ccc(C)c(Oc4ccnc5[nH]ccc45)c3)cc2C(F)(F)F)CC1
- inhibition [6]: 31%
- inhibition [7]: inactive
- inhibition [8]: 17.4%
- inhibition [9]: 19.2%
- inhibition [10]: 81%
- inhibition [11]: inactive
- inhibition [12]: inactive
- inhibition [13]: 23.1%

SMILES: CCN1CCN(Cc2ccc(NC(=O)c3ccc(C)c(/C=C/c4cnc5[nH]ccc5c4OC)c3)cc2C(F)(F)F)CC1
- % of control [14]: 0.7%
- inhibition [15]: 6.6%
- residual activity [16]: 0.3%
- inhibition [17]: 1.4%
- inhibition [18]: -9.4%
- inhibition [19]: 100%
- inhibition [20]: 1.4%
- inhibition [21]: 20.7%
